{"source": "paper PMC6225228", "about": "“Design, Synthesis and Evaluation of N-pyrazinylbenzamides as Potential Antimycobacterial Agents” (Molecules : A Journal of Synthetic Chemistry and Natural …, 2018)", "format_in_all_cases": "cell-based", "key": {"[1]": {"tested_on": "Enterococcus sp. J 14365/08", "assay": "Antibacterial microdilution broth, EF", "settings": "read-out: MIC EF"}, "[2]": {"tested_on": "Staphylococcus epidermidis H 6966/08", "assay": "Antibacterial microdilution broth, SE", "settings": "read-out: MIC SE"}, "[3]": {"tested_on": "Pseudomonas aeruginosa CCM 1961", "assay": "Antibacterial microdilution broth, PA", "settings": "read-out: MIC PA"}, "[4]": {"tested_on": "Staphylococcus aureus CCM 4516/08", "assay": "Antibacterial microdilution broth, SA", "settings": "read-out: MIC SA"}, "[5]": {"tested_on": "Staphylococcus aureus H 5996/08 methicillin resistant", "assay": "microbe, parasite or virus in culture", "settings": "for MIC: Staphylococcus aureus, MRSA, read-out: MIC MRSA"}, "[6]": {"tested_on": "Escherichia coli CCM 4517", "assay": "Antibacterial microdilution broth, EC", "settings": "read-out: MIC EC"}, "[7]": {"tested_on": "Mycobacterium smegmatis CCM 4622 (ATCC 607)", "assay": "Antimycobacterial microdilution, M. smegmatis", "settings": "Middlebrook 7H9 with OADC, resazurin"}, "Candida glabrata 20/I": {"tested_on": "Candida glabrata 20/I", "assay": "Antifungal microdilution broth, CG", "settings": "Nakaseomyces glabratus, 20/I, read-out: MIC CG"}, "Trichosporon asahii 1188": {"tested_on": "Trichosporon asahii 1188", "assay": "Antifungal microdilution broth, TA", "settings": "read-out: MIC TA"}, "[8]": {"tested_on": "Lichtheimia corymbifera 272", "assay": "Antifungal microdilution broth, LC", "settings": "read-out: MIC LC"}, "[9]": {"tested_on": "Candida albicans ATCC 44859", "assay": "Antifungal microdilution broth, CA", "settings": "Candida albicans, read-out: MIC CA"}, "Candida krusei E28": {"tested_on": "Candida krusei E28", "assay": "Antifungal microdilution broth, CK", "settings": "Pichia kudriavzevii, read-out: MIC CK"}, "[10]": {"tested_on": "Trichophyton interdigitale 445", "assay": "Antifungal microdilution broth, TI", "settings": "read-out: MIC TI"}, "[11]": {"tested_on": "Aspergillus fumigatus 231", "assay": "Antifungal microdilution broth, AF", "settings": "read-out: MIC AF"}, "Candida tropicalis 156": {"tested_on": "Candida tropicalis 156", "assay": "Antifungal microdilution broth, CT", "settings": "read-out: MIC CT"}, "[12]": {"settings": "Enterococcus, SP.J14365/08, 24 h"}, "[13]": {"settings": "Enterococcus, SP.J14365/08, 48 h"}, "[14]": {"settings": "Staphylococcus epidermidis, H6966/08, 24 h"}, "[15]": {"settings": "Staphylococcus epidermidis, H6966/08, 48 h"}, "[16]": {"settings": "Pseudomonas aeruginosa, CCM1961, 72 h"}, "[17]": {"settings": "Pseudomonas aeruginosa, CCM1961, 120 h"}, "[18]": {"settings": "Staphylococcus aureus, CCM4516, 24 h"}, "[19]": {"settings": "Staphylococcus aureus, CCM4516, 48 h"}, "[20]": {"settings": "Escherichia coli, CCM4517, 24 h"}, "[21]": {"settings": "Escherichia coli, CCM4517, 48 h"}}, "note": "Where “and” joins values, the source holds several entries; their conditions need not be identical. Identical values can stand only once. Like-named read-outs stand apart in the source and are kept apart here.", "data": [{"compound": "NC[C@@H]1O[C@H](O[C@H]2[C@@H](O)[C@H](O[C@@H]3[C@@H](O)[C@H](N)C[C@H](N)[C@H]3O[C@H]3O[C@H](CN)[C@@H](O)[C@H](O)[C@H]3N)O[C@@H]2CO)[C@H](N)[C@@H](O)[C@@H]1O", "note": "[Neom, neomycin, reference compound]", "values": [{"measurement": "MIC", "setting": "[1]; 24 h", "value": 250, "unit": "µM"}, {"measurement": "MIC", "setting": "[1]; 48 h", "value": 250, "unit": "µM"}, {"measurement": "MIC", "setting": "[2]; 24 h", "value": "3.9 µM and 3.90 µM"}, {"measurement": "MIC", "setting": "[2]; 48 h", "value": 7.81, "unit": "µM"}, {"measurement": "MIC", "setting": "[3]; 72 h", "value": 7.81, "unit": "µM"}, {"measurement": "MIC", "setting": "[3]; 120 h", "value": 15.62, "unit": "µM"}, {"measurement": "MIC", "setting": "[4]; 24 h", "value": "3.9 µM and 3.90 µM"}, {"measurement": "MIC", "setting": "[4]; 48 h", "value": "3.9 µM and 3.90 µM"}, {"measurement": "MIC MRSA", "setting": "[5]; 24 h", "value": 0.98, "unit": "µM"}, {"measurement": "MIC MRSA", "setting": "[5]; 48 h", "value": 0.98, "unit": "µM"}, {"measurement": "MIC", "setting": "[6]; 24 h", "value": 0.98, "unit": "µM"}, {"measurement": "MIC", "setting": "[6]; 48 h", "value": 0.98, "unit": "µM"}]}, {"compound": "CC1(C)S[C@@H]2[C@H](NC(=O)Cc3ccccc3)C(=O)N2[C@H]1C(=O)O", "note": "[Pen, benzylpenicillin, reference compound]", "values": [{"measurement": "MIC", "setting": "[1]; [12]", "value": 7.81, "unit": "µM"}, {"measurement": "MIC", "setting": "[1]; [13]", "value": 15.6, "unit": "µM"}, {"measurement": "MIC", "setting": "[2]; [14]", "value": 31.2, "unit": "µM"}, {"measurement": "MIC", "setting": "[2]; [15]", "value": 125, "unit": "µM"}, {"measurement": "MIC", "setting": "[3]; [16]", "value": "> 500", "unit": "µM"}, {"measurement": "MIC", "setting": "[3]; [17]", "value": "> 500", "unit": "µM"}, {"measurement": "MIC", "setting": "[4]; [18]", "value": 0.24, "unit": "µM"}, {"measurement": "MIC", "setting": "[4]; [19]", "value": 0.24, "unit": "µM"}, {"measurement": "MIC", "setting": "[5]; 24 h", "value": 125, "unit": "µM"}, {"measurement": "MIC", "setting": "[5]; 48 h", "value": 125, "unit": "µM"}, {"measurement": "MIC", "setting": "[6]; [20]", "value": 125, "unit": "µM"}, {"measurement": "MIC", "setting": "[6]; [21]", "value": 125, "unit": "µM"}]}, {"compound": "CC1(C)S[C@@H]2[C@H](NC(=O)COc3ccccc3)C(=O)N2[C@H]1C(=O)O", "note": "[Phen, phenoxymethylpenicillin, reference compound]", "values": [{"measurement": "MIC", "setting": "[1]; [12]", "value": 7.81, "unit": "µM"}, {"measurement": "MIC", "setting": "[1]; [13]", "value": 7.81, "unit": "µM"}, {"measurement": "MIC", "setting": "[2]; [14]", "value": 62.5, "unit": "µM"}, {"measurement": "MIC", "setting": "[2]; [15]", "value": 250, "unit": "µM"}, {"measurement": "MIC", "setting": "[3]; [16]", "value": "> 500", "unit": "µM"}, {"measurement": "MIC", "setting": "[3]; [17]", "value": "> 500", "unit": "µM"}, {"measurement": "MIC", "setting": "[4]; [18]", "value": 0.24, "unit": "µM"}, {"measurement": "MIC", "setting": "[4]; [19]", "value": 0.24, "unit": "µM"}, {"measurement": "MIC", "setting": "[5]; 24 h", "value": 250, "unit": "µM"}, {"measurement": "MIC", "setting": "[5]; 48 h", "value": 500, "unit": "µM"}, {"measurement": "MIC", "setting": "[6]; [20]", "value": "> 500", "unit": "µM"}, {"measurement": "MIC", "setting": "[6]; [21]", "value": "> 500", "unit": "µM"}]}, {"compound": "CO[C@H]1/C=C/O[C@@]2(C)Oc3c(C)c(O)c4c(O)c(c(/C=N/N5CCN(C)CC5)c(O)c4c3C2=O)NC(=O)/C(C)=C\\C=C\\[C@H](C)[C@H](O)[C@@H](C)[C@@H](O)[C@@H](C)[C@H](OC(C)=O)[C@@H]1C", "note": "[RFM, rifampicin, reference compound]", "values": [{"measurement": "M. smeg. ATCC 607 MIC", "setting": "[7]", "value": 1.56, "unit": "µg/mL"}, {"measurement": "MIC", "setting": "[7]; Mycolicibacterium smegmatis, read-out: M. smeg. ATCC 607 MIC", "value": "0.78 to 1.56", "unit": "µg/mL"}]}, {"compound": "C[C@@H](c1ncncc1F)[C@](O)(Cn1cncn1)c1ccc(F)cc1F", "note": "[VOR, voriconazole, reference compound]", "values": [{"measurement": "MIC", "setting": "Candida glabrata 20/I; 24 h", "value": 0.24, "unit": "µM"}, {"measurement": "MIC", "setting": "Candida glabrata 20/I; 48 h", "value": 250, "unit": "µM"}, {"measurement": "MIC", "setting": "Trichosporon asahii 1188; Trichosporon asahii, 1188, 24 h", "value": 0.98, "unit": "µM"}, {"measurement": "MIC", "setting": "Trichosporon asahii 1188; Trichosporon asahii, 1188, 48 h", "value": 7.81, "unit": "µM"}, {"measurement": "MIC", "setting": "[8]; Lichtheimia corymbifera, 272, 24 h", "value": 125, "unit": "µM"}, {"measurement": "MIC", "setting": "[8]; Lichtheimia corymbifera, 272, 48 h", "value": 250, "unit": "µM"}, {"measurement": "MIC", "setting": "[9]; ATCC44859, 24 h", "value": 0.002, "unit": "µM"}, {"measurement": "MIC", "setting": "[9]; ATCC44859, 48 h", "value": 0.008, "unit": "µM"}, {"measurement": "MIC", "setting": "Candida krusei E28; E28, 24 h", "value": 0.49, "unit": "µM"}, {"measurement": "MIC", "setting": "Candida krusei E28; E28, 48 h", "value": 1.95, "unit": "µM"}, {"measurement": "MIC", "setting": "[10]; Trichophyton interdigitale, 445, 72 h", "value": 0.061, "unit": "µM"}, {"measurement": "MIC", "setting": "[10]; Trichophyton interdigitale, 445, 120 h", "value": 0.12, "unit": "µM"}, {"measurement": "MIC", "setting": "[11]; Aspergillus fumigatus, 231, 24 h", "value": 0.49, "unit": "µM"}, {"measurement": "MIC", "setting": "[11]; Aspergillus fumigatus, 231, 48 h", "value": 1.95, "unit": "µM"}, {"measurement": "MIC", "setting": "Candida tropicalis 156; Candida tropicalis, 156, 24 h", "value": 62.5, "unit": "µM"}, {"measurement": "MIC", "setting": "Candida tropicalis 156; Candida tropicalis, 156, 48 h", "value": 250, "unit": "µM"}]}, {"compound": "bacitracin [reference compound]", "values": [{"measurement": "MIC", "setting": "[1]; 24 h", "value": 31.25, "unit": "µM"}, {"measurement": "MIC", "setting": "[1]; 48 h", "value": 31.25, "unit": "µM"}, {"measurement": "MIC", "setting": "[2]; 24 h", "value": 15.62, "unit": "µM"}, {"measurement": "MIC", "setting": "[2]; 48 h", "value": 31.25, "unit": "µM"}, {"measurement": "MIC", "setting": "[3]; 72 h", "value": "> 500", "unit": "µM"}, {"measurement": "MIC", "setting": "[3]; 120 h", "value": "> 500", "unit": "µM"}, {"measurement": "MIC", "setting": "[4]; 24 h", "value": 15.62, "unit": "µM"}, {"measurement": "MIC", "setting": "[4]; 48 h", "value": 31.25, "unit": "µM"}, {"measurement": "MIC MRSA", "setting": "[5]; 24 h", "value": 15.62, "unit": "µM"}, {"measurement": "MIC MRSA", "setting": "[5]; 48 h", "value": 31.25, "unit": "µM"}, {"measurement": "MIC", "setting": "[6]; 24 h", "value": "> 500", "unit": "µM"}, {"measurement": "MIC", "setting": "[6]; 48 h", "value": "> 500", "unit": "µM"}]}]}
